Biological target: SARS-CoV-2 main protease (Mpro) (Severe acute respiratory syndrome coronavirus 2, UniProt P0DTD1)
Experiment: cell-based

Compound | EC50 [nM] | M^pro reporter assay pEC50
COc1cccc2[nH]c(C(=O)N[C@H](Cc3cccc(F)c3)C(=O)N[C@@H](C[C@@H]3CCNC3=O)C(=O)COc3c(F)c(F)c(CO)c(F)c3F)cc12 [compound 2, N-((R)-3-(3-Fluorophenyl)-1-oxo-1-(((S)-3-oxo-1-((S)-2-oxopyrrolidin-3-yl)-4-(2,3,5,6-tetrafluoro-4-(hydroxymethyl)phenoxy)butan-2-yl)amino)propan-2-yl)-4-methoxy-1H-indole-2-carboxamide] | 18600 | –
COc1cccc2[nH]c(C(=O)N[C@@H](Cc3cccc(F)c3)C(=O)N[C@@H](C[C@@H]3CCNC3=O)C(=O)COc3c(F)c(F)c(C(C)O)c(F)c3F)cc12 (stereo partly drawn) [compound 8, N-((2S)-3-(3-Fluorophenyl)-1-oxo-1-(((2S)-3-oxo-1-((S)-2-oxopyrrolidin-3-yl)-4-(2,3,5,6-tetrafluoro-4-(1-hydroxyethyl)phenoxy)butan-2-yl)amino)propan-2-yl)-4-methoxy-1H-indole-2-carboxamide] | 8.71 | –
COc1cccc2[nH]c(C(=O)N[C@@H](Cc3cccc(F)c3)C(=O)N[C@@H](C[C@@H]3CCNC3=O)C(=O)COc3c(F)c(F)c(CO)c(F)c3F)cc12 [compound 1, N-((S)-3-(3-Fluorophenyl)-1-oxo-1-(((S)-3-oxo-1-((S)-2-oxopyrrolidin-3-yl)-4-(2,3,5,6-tetrafluoro-4-(hydroxymethyl)phenoxy)butan-2-yl)amino)propan-2-yl)-4-methoxy-1H-indole-2-carboxamide] | 105 | –
O=C(N[C@@H](Cc1c[nH]c2ccccc12)C(=O)N[C@@H](C[C@@H]1CCNC1=O)C(=O)COc1c(F)c(F)c(CO)c(F)c1F)c1cc2ccccc2[nH]1 [compound 5, N-((S)-3-(1H-Indol-3-yl)-1-oxo-1-(((S)-3-oxo-1-((S)-2-oxopyrrolidin-3-yl)-4-(2,3,5,6-tetrafluoro-4-(hydroxymethyl)phenoxy)butan-2-yl)amino)propan-2-yl)-1H-indole-2-carboxamide] | 2880 | –
CCCCCCCCCCCCCCCC(=O)N[C@@H](Cc1cccc(F)c1)C(=O)N[C@@H](C[C@@H]1CCNC1=O)C(=O)COc1c(F)c(F)c(CO)c(F)c1F [compound 4, N-((S)-3-(3-Fluorophenyl)-1-oxo-1-(((S)-3-oxo-1-((S)-2-oxopyrrolidin-3-yl)-4-(2,3,5,6-tetrafluoro-4-(hydroxymethyl)phenoxy)butan-2-yl)amino)propan-2-yl)palmitamide] | > 50100 | –
COc1cccc2[nH]c(C(=O)N[C@@H](Cc3cccc(F)c3)C(=O)N[C@@H](C[C@@H]3CCNC3=O)C(=O)COc3c(F)c(F)c(F)c(F)c3F)cc12 [compound 16, reference compound] | < 3.02 | –
N-((S)-3-(3-Fluorophenyl)-1-oxo-1-(((S)-2-oxo-5-(5-oxo-1,5-dihydro-4H-1,2,4-triazol-4-yl)-1-(2,3,5,6-tetrafluoro-4-(2-hydroxypropan-2-yl)phenoxy)pentan-3-yl)amino)propan-2-yl)-4-methoxy-1H-indole-2-carboxamide [compound 12] | – | 4.66
COc1cccc2[nH]c(C(=O)N[C@@H](Cc3cccc(F)c3)C(=O)N[C@@H](C[C@@H]3CCNC3=O)C(=O)COc3c(F)c(F)c(C(C)(C)O)c(F)c3F)cc12 [compound 10, N-((S)-3-(3-Fluorophenyl)-1-oxo-1-(((S)-3-oxo-1-((S)-2-oxopyrrolidin-3-yl)-4-(2,3,5,6-tetrafluoro-4-(2-hydroxypropan-2-yl)phenoxy)butan-2-yl)amino)propan-2-yl)-4-methoxy-1H-indole-2-carboxamide] | 4.68 | –
COc1cccc2[nH]c(C(=O)N[C@@H](Cc3cccc(F)c3)C(=O)N[C@@H](C[C@@H]3CC(=O)NC3=O)C(=O)COc3c(F)c(F)c(C(C)(C)O)c(F)c3F)cc12 [compound 11] | 1230 | –
